Source: publication PMC5017735, “A Novel Peptide Derived from the Fusion Protein Heptad Repeat Inhibits Replication of Subacute Sclerosing Panencephalitis Virus In Vitro and In Vivo” (PLoS ONE, 2016)
Peptide text beside a SMILES is read from it.

Legend:
SSPE Yamagata-1 strain [1] = test: Viral plaque reduction assay, SSPE virus in Vero cells; type: cell-based, SSPE virus (variant measles virus); settings: for inhibition of plaque formation compared with the control group, SSPE Yamagata-1 strain (peptide screening): peptide 10 μM, Vero cells and Vero/SLAM cells (Fig 2C), duplicate, at least twice independently; for EC50: plaque reduction, SSPE Yamagata-1 strain, Vero cells, mean ± SD
Method: (§1) African green monkey kidney (Vero) cells and Vero cells expressing human SLAM (Vero/SLAM cells) were used in all experiments. The growth medium for Vero cells comprised minimal essential medium (MEM) supplemented with 10% heat-inactivated newborn bovine serum, penicillin G (100 IU/ml), streptomycin (100 μg/ml), and L-glutamine (300 μg/ml). The same growth medium, which was further supplemented with G418 (400 μg/ml), was used for Vero/SLAM cells. Cells were seeded into the wells (22 mm) of 12-well tissue culture plates at 1 × 10^5 cells/well and incubated at 37°C in a 10% CO2 incubator for 3 days, at which time they had just reached confluence. The virus strains used were human MV Edmonston strain and SSPE Yamagata-1 [34], which was originally isolated from the brain of an SSPE patient. The Edmonston strain of MV was used to inoculate Vero/SLAM cells and harvested after freeze–thawing infected cells. The SSPE Yamagata-1 strain was cultured in Vero/SLAM cells, harvested by trypsinization, prepared as an infected cell suspension in the Vero/SLAM cell medium supplemented with 10% dimethyl sulfoxide, and stored at −80°C until use.
(§2) Screening was performed to evaluate the antiviral effects of each synthetic peptide against the MV and SSPE viruses using the viral plaque reduction assay. Based on the results of the peptide screening, the 50% effective concentration (EC50), i.e., the concentration of compounds required to inhibit virus plaque formation by 50%, was also determined. The Human MV Edmonston strain was used to produce cell-free virions, which yielded a reproducible number of syncytia [generally 200–300 plaque-forming units (PFUs)] in the control wells. The SSPE virus was also used to yield a reproducible number of syncytia (generally 70–150 PFU) in control wells. In the peptide screening assay, each synthetic peptide was used at a concentration of 10 μM. IFN-α and enfuvirtide, a peptide fusion inhibitor of HIV-1, were used as controls at a concentration of 250 IU/ml and 10 μM, respectively.

SSPE Yamagata-1 strain [2] = test: Viral plaque reduction assay, SSPE virus in Vero/SLAM cells; type: cell-based, SSPE virus (variant measles virus); settings: plaque reduction, SSPE Yamagata-1 strain, mean ± SD
Method: as §1, §2

MV Edmonston strain = test: Viral plaque reduction assay, measles virus in Vero cells; type: cell-based
Method: as §1, §2

CC[C@H](C)[C@H](NC(C)=O)C(=O)N[C@@H](CCC(=O)O)C(=O)N[C@@H](CCC(=O)O)C(=O)N[C@@H](CCC(=O)O)C(=O)N[C@@H](CCCNC(=N)N)C(=O)N[C@@H](CCCCN)C(=O)N[C@@H](CCCCN)C(=O)N[C@H](C(=O)N[C@@H](CCC(=O)O)C(=O)N[C@@H](CCC(=O)O)C(=O)N[C@@H](CC(N)=O)C(=O)N[C@@H](CC(C)C)C(=O)N[C@@H](CCCCN)C(=O)N[C@@H](CCCCN)C(=O)N[C@@H](C)C(=O)N[C@@H](CCC(=O)O)C(=O)N[C@@H](CCC(=O)O)C(=O)N[C@@H](CCCCN)C(=O)N[C@@H](CC(C)C)C(=O)N[C@@H](CCCCN)C(=O)N[C@@H](CCCCN)C(=O)N[C@@H](C)C(=O)N[C@@H](CCC(=O)O)C(=O)N[C@@H](CCC(=O)O)C(=O)N[C@@H](CC(C)C)C(=O)N[C@@H](CC(C)C)C(=O)N[C@@H](CCCCN)C(=O)N[C@@H](CCCCN)C(=O)N[C@@H](CO)C(=O)N[C@@H](CCC(=O)O)C(=O)N[C@@H](CCC(=O)O)C(=O)N[C@H](C(=O)N[C@@H](CC(C)C)C(=O)N[C@@H](CCCCN)C(=O)N[C@@H](CCCCN)C(N)=O)[C@@H](C)CC)C(C)C [Peptide M1EK] (Ac-IEEERKKVEENLKKAEEKLKKAEELLKKSEEILKK-NH2)
inhibition of plaque formation compared with the control group, SSPE Yamagata-1 strain (peptide screening) (SSPE Yamagata-1 strain [1]): > 97%
EC50 (SSPE Yamagata-1 strain [1]): 120 ± 50 nM
EC50 (SSPE Yamagata-1 strain [2]): 170 ± 20 nM

Enfuvirtide
inhibition of MV Edmonston plaque formation compared with the control group (peptide screening) (MV Edmonston strain; peptide 10 μM (Fig 2C), duplicate, at least twice independently): lower antiviral activity
EC50 (MV Edmonston strain; plaque reduction, MV Edmonston strain, Vero cells, mean ± SD): > 10000 nM
inhibition of plaque formation compared with the control group, SSPE Yamagata-1 strain (peptide screening) (SSPE Yamagata-1 strain [1]): lower antiviral activity
EC50 (SSPE Yamagata-1 strain [1]): > 10000 nM
EC50 (SSPE Yamagata-1 strain [2]): > 10000 nM
